{"source": "patent US9469854B2", "about": "“Pharmaceutical composition for treating liver diseases” (Academia Sinica, priority 2014, dated 2016)", "key": {"ACACB [1]": {"test_system": "ACACB", "experiment": "qRT-PCR mRNA expression in HepG2 cells", "type": "cell-based, human", "protocol": "(§1) The human HepG2 cells and HEK 293T cells used in the following examples were originally obtained from the American Tissue Culture Collection (ATCC, USA). The human HCC HepG2 cell line was cultured in Minimum Essential Medium Eagle (Sigma) supplemented with 10% fetal bovine serum (FBS) (Invitrogen), 2.2 g/L of sodium bicarbonate (Sigma), 0.1 mM of non-essential amino acids (Caisson), 1 mM of sodium pyruvate (Invitrogen), and 10 of ml/L penicillin-streptomycin-amphotericin solution (Biological Industries). Human HEK-293T cells were maintained in high-glucose Dulbecco's modified eagle medium (Invitrogen) supplemented with 10% FBS and 3.7 g/L of sodium bicarbonate (Sigma). Both cell lines were cultured at 37° C. and 5% CO2. A 50 mM stock solution of berberine chloride (Sigma-Aldrich) was prepared in dimethyl sulfoxide (DMSO). Cells were treated with 40 μM of berberine chloride or 0.08% DMSO as the control. For induction of lipid droplets formation in cultured cells, 200 μM of oleic acid (Sigma-Aldrich) was added into the culture medium for 24 h. Total RNA was extracted using a TRIZOL reagent (Invitrogen) according to the manufacturer's protocol. The total RNA quantity was measured using a NanoDrop ND-1000 spectrophotometer (Nanodrop Technologies). The total RNA quality and integrity were assayed using an Agilent 2100 bioanalyzer with an RNA 6000 nano kit (Agilent Technologies). Total RNAs (1 μg) were reverse-transcribed into cDNA by using M-MuLV Reverse Transcriptase (Thermo) and Oligo(dT)12-18 primers (Invitrogen) according to the manufacturer's protocol. The cDNA were then used for a real-time PCR with a LightCycler 480 SYBR Green I Master (Roche) by using primers shown in the following Table 1. The gene expression levels were normalized to GAPDH levels. […] Cells were incubated for 24 h or 48 h with a microRNA mimic or inhibitor prior to RNA purification for gene expression analysis, and were incubated for 72 h for protein expression analysis."}, "MAT1A": {"test_system": "MAT1A", "experiment": "qRT-PCR mRNA expression in HepG2 cells", "type": "cell-based, human", "protocol": "as §1"}, "MAT2A": {"test_system": "MAT2A", "experiment": "qRT-PCR mRNA expression in HepG2 cells", "type": "cell-based, human", "conditions": "for decrease in mRNA expression of MAT2A: HepG2, 50 nM mimic transfection", "protocol": "as §1"}, "MAT2B": {"test_system": "MAT2B", "experiment": "qRT-PCR mRNA expression in HepG2 cells", "type": "cell-based, human", "protocol": "as §1"}, "ACACA": {"test_system": "ACACA", "experiment": "qRT-PCR mRNA expression in primary human hepatocytes", "type": "cell-based", "conditions": "PHH", "protocol": "(§2) The primary human hepatocytes from Caucasian donors were purchased from Invitrogen and cultured following the manufacturer's instructions. The hepatocytes were thawed and transferred into cryopreserved hepatocytes recovery medium (CM7000, Invitrogen), centrifuging at room temperature, 100×g for 10 min. Then, the hepatocytes were diluted to seeding density with plating medium (CM3000, Invitrogen) and added into collagen I-coated plates (Invitrogen). These plates were incubated at 37° C. for 4-6 hours under 5% CO2 for forming a monolayer. Then, plating medium was replaced by overlay incubation medium (CM4000 and 0.35 mg/mL Geltrex™ Matrix, Invitrogen), and the incubation medium was replaced daily. In the following examples, hepatocytes form 3 to 4 donors were used for experiments. A 50 mM stock solution of berberine chloride (Sigma-Aldrich) was prepared in dimethyl sulfoxide (DMSO). Cells were treated with 40 μM of berberine chloride or 0.08% DMSO as the control. For induction of lipid droplets formation in cultured cells, 200 μM of oleic acid (Sigma-Aldrich) was added into the culture medium for 24 h. Total RNA was extracted using a TRIZOL reagent (Invitrogen) according to the manufacturer's protocol. The total RNA quantity was measured using a NanoDrop ND-1000 spectrophotometer (Nanodrop Technologies). The total RNA quality and integrity were assayed using an Agilent 2100 bioanalyzer with an RNA 6000 nano kit (Agilent Technologies). Total RNAs (1 μg) were reverse-transcribed into cDNA by using M-MuLV Reverse Transcriptase (Thermo) and Oligo(dT)12-18 primers (Invitrogen) according to the manufacturer's protocol. The cDNA were then used for a real-time PCR with a LightCycler 480 SYBR Green I Master (Roche) by using primers shown in the following Table 1. The gene expression levels were normalized to GAPDH levels."}, "ACACB [2]": {"test_system": "ACACB", "experiment": "qRT-PCR mRNA expression in primary human hepatocytes", "type": "cell-based", "conditions": "PHH", "protocol": "as §2"}, "DGAT2": {"test_system": "DGAT2", "experiment": "qRT-PCR mRNA expression in primary human hepatocytes", "type": "cell-based", "conditions": "PHH", "protocol": "as §2"}, "HLCS": {"test_system": "HLCS", "experiment": "qRT-PCR mRNA expression in primary human hepatocytes", "type": "cell-based", "protocol": "as §2"}, "MTOR": {"test_system": "MTOR", "experiment": "qRT-PCR mRNA expression in primary human hepatocytes", "type": "cell-based", "conditions": "for decrease in MTOR expression: 50 nM mimic transfection", "protocol": "as §2"}, "RPTOR": {"test_system": "RPTOR", "experiment": "qRT-PCR mRNA expression in primary human hepatocytes", "type": "cell-based", "conditions": "for decrease in RPTOR expression: 50 nM mimic transfection", "protocol": "as §2"}, "[3]": {"conditions": "HepG2, 40 μM berberine, up to 8 h"}, "[4]": {"conditions": "HepG2, 50 nM mimic transfection, 48 h"}, "[5]": {"conditions": "24 h, cells not named in b149 (primary human hepatocytes)"}}, "data": [{"compound": "COc1ccc2cc3[n+](cc2c1OC)CCc1cc2c(cc1-3)OCO2", "note": "[berberine]", "values": [{"measurement": "ACACB expression", "setting": "ACACB [1]; HepG2, berberine (data not shown)", "result": "consistently decreased"}, {"measurement": "MAT1A mRNA expression change", "setting": "MAT1A; [3]", "result": "did not change substantially"}, {"measurement": "MAT2A mRNA level decrease", "setting": "MAT2A; HepG2, 40 μM berberine, 2 h vs 0.08% DMSO", "result": 1.8, "unit": "fold"}, {"measurement": "MAT2A mRNA level decrease", "setting": "MAT2A; HepG2, 40 μM berberine, 4 h (lowest value) vs 0.08% DMSO", "result": 3.8, "unit": "fold"}, {"measurement": "MAT2A mRNA level change (given as increase)", "setting": "MAT2A; HepG2, 40 μM berberine, 8 h vs 0.08% DMSO", "result": 2.2, "unit": "fold"}, {"measurement": "MAT2B mRNA expression change", "setting": "MAT2B; [3]", "result": "did not change substantially"}, {"measurement": "ACACA expression decrease", "setting": "ACACA; 40 μM berberine, 8 h", "result": 2.1, "unit": "fold"}, {"measurement": "mRNA expression of ACACB", "setting": "ACACB [2]; 40 μM berberine, 4-8 h", "result": "decreases"}, {"measurement": "changes in DGAT2 expression levels", "setting": "DGAT2; 40 μM berberine, 2-8 h", "result": "not significant"}, {"measurement": "mRNA expression of HLCS", "setting": "HLCS; PHH, 40 μM berberine, 4-8 h", "result": "decreases"}, {"measurement": "mRNA expression of MTOR", "setting": "MTOR; PHH, 40 μM berberine, 4-8 h", "result": "decreases"}, {"measurement": "mRNA expression of RPTOR", "setting": "RPTOR; PHH, 40 μM berberine, 4-8 h", "result": "decreases"}]}, {"compound": "hsa-miR-21-3p (CAACACCAGUCGAUGGGCUGU; listed as RNA, chemistry not given here) [miR-21-3p mimic]", "values": [{"measurement": "decrease in mRNA expression of ACACB", "setting": "ACACB [1]; HepG2, mimic transfection, 24 h", "result": 50, "unit": "%"}, {"measurement": "decrease in mRNA expression of MAT1A", "setting": "MAT1A; [4]", "result": "but not in that of MAT1A"}, {"measurement": "decrease in mRNA expression of MAT2A", "setting": "MAT2A; 24 hours", "result": "> 50", "unit": "%"}, {"measurement": "decrease in mRNA expression of MAT2A", "setting": "MAT2A; 48 h", "result": "> 50", "unit": "%"}, {"measurement": "decrease in mRNA expression of MAT2B", "setting": "MAT2B; [4]", "result": "> 50", "unit": "%"}, {"measurement": "ACACA expression decrease", "setting": "ACACA; 50 nM mimic transfection, 48 h", "result": 1.6, "unit": "fold"}, {"measurement": "ACACB expression decrease", "setting": "ACACB [2]; 50 nM mimic transfection, 48 h", "result": 1.8, "unit": "fold"}, {"measurement": "decrease in mRNA expression levels of DGAT2", "setting": "DGAT2; mimic transfection, 48 h", "result": 1.5, "unit": "fold"}, {"measurement": "decrease in HLCS expression", "setting": "HLCS; 50 nM mimic transfection, 48 h, cells not given", "result": 1.5, "unit": "fold"}, {"measurement": "decrease in MTOR expression", "setting": "MTOR; [5]", "result": 1.4, "unit": "fold"}, {"measurement": "decrease in MTOR expression", "setting": "MTOR; 48 h, cells not given", "result": 2.5, "unit": "fold"}, {"measurement": "decrease in RPTOR expression", "setting": "RPTOR; [5]", "result": 1.6, "unit": "fold"}, {"measurement": "decrease in RPTOR expression", "setting": "RPTOR; 48 h, cells not given", "result": 2.2, "unit": "fold"}]}]}
